Counter-ions that a name gives are not always drawn.
How the values were obtained:
Format in all cases: biochemical
human thrombin = target: T1, human thrombin (Homo sapiens, UniProt P00734); assay: inhibition of the amidase activity of thrombin (chromogenic substrate), Kass; settings: hypothetical equilibrium (association) constant thrombin + test compound; mean over a range of concentrations; pH 7.4
T1 construct: purified human thrombin; purchased Enzyme Research Laboratories, South Bend, Indiana
Description: The assay is carried out by mixing 50 µl buffer (0.03M Tris, 0.15M NaCl, pH 7.4) with 25 µl of human thrombin solution (purified human thrombin, Enzyme Research Laboratories, South Bend, Indiana, at 8 NIH units/ml) and 25 µl of test compound in a solvent (50% aqueous methanol (v:v)). Then 150 µl of an aqueous solution of the chromogenic substate (at 0.25 mg/ml) are added and the rates of hydrolysis of the substrate are measured by monitoring the reactions at 405 nm for the release of p-nitroaniline. Standard curves are constructed by plotting free thrombin concentration against hydrolysis rate. The hydrolysis rates observed with test compounds are then converted to "free thrombin" values in the respective assays by use of the standard curves. The bound thrombin (bound to test compound) is calculated by subtracting the amount of free thrombin observed in each assay from the known initial amount of thrombin used in the assay. The amount of free inhibitor in each assay is calculated by subtracting the number of moles of bound thrombin from the number of moles of added inhibitor (test compound). […]
Kass is calculated for a range of concentrations of test compounds and the mean value reported in units of liter per mole. […] For example, each of the particularly preferred examples of the invention listed above was determined to have a Kass of at least 5 X 10^6 L/mole.

human or animal plasma [1] = assay: thrombin time (TT) coagulation assay in plasma; settings: concentration required to double the clotting time, linear extrapolation; thrombin 10 NIH units/ml
Description: (§1) Dog plasma and rat plasma are obtained from conscious mixed-breed hounds (either sex, hazelton-LRE, Kalamazoo, Michigan, U.S.A.) or from anesthetized male Sprague-Dawley rats (Harlan Sprague-Dawley, Inc., Indianapolis, Indiana, U.S.A.) by venipuncture into 3.8 percent citrate. Fibrinogen is prepared from in-date ACD human blood as the fraction I-2 according to previous procedures and specifications. Smith, Biochem. J., 185, 1-11 (1980); and Smith, et al., Biochemistry, 11, 2958-2967 (1972). Human fibrinogen is also purchased as 98 percent pure/plasmin free from American Diagnostica, Greenwich, Connecticut. Coagulation reagents ACTIN, Thromboplastin, and Human plasma are from Baxter Healthcare Corp., Dade Division, Miami, Florida. […]
(§2) Coagulation assay procedures are as previously described. […] The thrombin time (TT) is measured by adding 0.05 ml saline and 0.05 ml thrombin (10 NIH units/ml) to 0.05 ml test plasma. The activated partial thromboplastin time (APTT) is measured by incubation of 0.05 ml test plasma with 0.05 ml Actin reagent for 120 seconds followed by 0.05 ml CaCl2 (0.02 M). The prothrombin time (PT) is measured by adding 0.05 ml saline and 0.05 ml Thromboplastin-C reagent to 0.05 ml test plasma. […] Each of the particularly preferred examples of the invention listed above was determined to have a TT value of less than 100 ng/mL. […]

human or animal plasma [2] = assay: activated partial thromboplastin time (APTT) coagulation assay in plasma; settings: concentration required to double the clotting time, linear extrapolation; Actin reagent, CaCl2
Description: as §1, §2

human or animal plasma [3] = assay: prothrombin time (PT) coagulation assay in plasma; settings: concentration required to double the clotting time, linear extrapolation; Thromboplastin-C reagent
Description: as §1, §2

Row | Kd (human thrombin) [nM] | SMILES | TT (human or animal plasma [1]) [ng/mL] | APTT (human or animal plasma [2]) [ng/mL] | PT (human or animal plasma [3]) [ng/mL]
1 | 17.5 | O=C(O)CN[C@H](CC1CCCCC1)C(=O)N1CCC[C@H]1C(=O)NC/C=C/c1c[nH]cn1 [Example 7, N-(carboxymethyl)-D-cyclohexylalanyl-N-[(E)-3-(imidazol-4-yl)prop-2-enyl]-L-prolinamide hydrochloride] | 30 | 280 | 430
2 | 12.5 | O=C(O)CN[C@H](CC1CCCCC1)C(=O)N1CCC[C@H]1C(=O)NCCCc1c[nH]cn1 [Example 8, N-(carboxymethyl)-D-cyclohexylalanyl-N-[3-(imidazol-4-yl)propyl]-L-prolinamide hydrochloride] | 20 | 170 | 380

Reference: patent EP0796866A1, “Antithrombotic diamides” (ELI LILLY AND COMPANY, priority 1996, dated 1997)
